# Assay results from US11746116B2, “Antibiotic resistance breakers” (KING'S COLLEGE LONDON, priority 2017, dated 2023).
# Where “and” joins values, the source holds several entries; their conditions need not be identical. Equal values may be shown once.
# Columns and labels:
# VRE12201 = assay: MIC, microdilution broth method; type: cell-based, Enterococcus faecalis; details: for MIC, VRE12201: ESKAPE panel, Gram-positive, in µg/mL
# MSSA9144 = assay: MIC, microdilution broth method; type: cell-based, Staphylococcus aureus; details: for MIC, MSSA9144: ESKAPE panel, Gram-positive, in µg/mL
# VRE12204 = assay: MIC, microdilution broth method; type: cell-based, Enterococcus faecium; details: ESKAPE panel, Gram-positive; in µg/mL
# EC12923 = assay: MIC, microdilution broth method; type: cell-based; details: for MIC, EC12923: ESKAPE panel, Gram-negative, in µg/mL
# PA13437 = assay: MIC, microdilution broth method; type: cell-based; details: ESKAPE panel, Gram-negative
# [1] = tested on: Staphylococcus aureus ATCC29213; assay: Murine thigh infection model, thigh bacterial burden; type: in vivo; details: individual thigh samples, ICR mice
# PA01 = assay: MIC, microdilution broth method; type: cell-based, Pseudomonas aeruginosa; details: for MIC, PA01: ESKAPE panel, Gram-negative, in µg/mL
# VSE775 = assay: MIC, microdilution broth method; type: cell-based, Enterococcus faecalis; parameters: MIC, VSE775: unit not given beside the values; details: for MIC, VSE775: ESKAPE panel, Gram-positive
# EMRSA16 = assay: MIC, microdilution broth method; type: cell-based, Staphylococcus aureus; details: for MIC, EMRSA16: in µg/mL
# KP13368 = assay: MIC, microdilution broth method; type: cell-based; details: for MIC, KP13368: ESKAPE panel, Gram-negative
# EMRSA15 = assay: MIC, microdilution broth method; type: cell-based, Staphylococcus aureus; details: for MIC, EMRSA15: in µg/mL
# Ab17978 = assay: MIC, microdilution broth method; type: cell-based; details: for MIC, Ab17978: ESKAPE panel, Gram-negative, in µg/mL
# M6 = assay: MIC, microdilution broth method; type: cell-based; details: for MIC, M6: ESKAPE panel, Gram-negative, in µg/mL
# AYE = assay: MIC, microdilution broth method; type: cell-based, Acinetobacter baumannii; details: for MIC, AYE: ESKAPE panel, Gram-negative, in µg/mL
"MIC, VRE12201 (VRE12201)","MIC, MSSA9144 (MSSA9144)","MIC, VRE12204 (VRE12204)","MIC, EC12923 (EC12923)","MIC, PA13437 (PA13437)","MIC, PA01 (PA01)","MIC, VSE775 (VSE775)","MIC, EMRSA16 (EMRSA16; ESKAPE panel, Gram-positive)","MIC, KP13368 (KP13368)","MIC, EMRSA15 (EMRSA15; ESKAPE panel, Gram-positive)","MIC, Ab17978 (Ab17978)","MIC, M6 (M6)","MIC, AYE (AYE)",Compound,other results
1,0.25,4,4,> 32 µg/mL,>32,2,8,> 32 µg/mL,8,4,4,>32,C[C@H]1COc2c(N3CC[C@H](Nc4ncccn4)C3)c(F)cc3c(=O)c(C(=O)O)cn1c23 [KSN-L19],–
1,0.5,16,0.5,> 32 µg/mL,>32,4,>32,> 32 µg/mL,32,2,16,>32,"C[C@H]1COc2c(N3CC[C@H](Nc4cc(NC5CC5)ncn4)C3)c(F)cc3c(=O)c(C(=O)O)cn1c23 [KSN-L21, (S)-10-((S)-3-((6-(cyclopropylamino)pyrimidin-4-yl)amino)pyrrolidin-1-yl)-9-fluoro-3-methyl-7-oxo-2,3-dihydro-7H-[1,4]oxazino[2,3,4-ij]quinoline-6-carboxylic acid]",–
≤0.125,≤0.125,1,0.125,> 32 µg/mL,4,≤0.125,1,32 µg/mL,0.5,≤0.125,2,4,"C[C@H]1COc2c(N3CC[C@@H](Nc4ncc(F)cn4)C3)c(F)cc3c(=O)c(C(=O)O)cn1c23 [KSN-L34, (S)-9-fluoro-10-((R)-3-((5-fluoropyrimidin-2-yl)amino)pyrrolidin-1-yl)-3-methyl-7-oxo-2,3-dihydro-7H-[1,4]oxazino[2,3,4-ij]quinoline-6-carboxylic acid]","MIC (VRE12201; Enterococcus faecalis, Enterococcus (VRE12201), Gram-Positive, read-out: MIC): ≤ 0.125 µg/mL; MIC (MSSA9144; Staphylococcus aureus (MSSA9144), Gram-Positive, read-out: MIC): ≤ 0.125 µg/mL; MIC (EC12923; Escherichia coli (EC12923), Gram-Negative, read-out: MIC): 0.125 µg/mL; MIC (PA01; Pseudomonas aeruginosa (PA01), Gram-Negative, read-out: MIC): 4 µg/mL; MIC (VSE775; Enterococcus faecalis, Enterococcus (VRE775), Gram-Positive, read-out: MIC): ≤ 0.125 µg/mL; MIC, EMRSA16 (EMRSA16; EMRSA16 (Table 16, role of the terminal pyrimidine ring)): 1; MIC (EMRSA16; Staphylococcus aureus (EMRSA16), Gram-Positive (Table 14), read-out: MIC): 1 µg/mL; MIC (KP13368; Klebsiella pneumoniae (KP13368), Gram-Negative, read-out: MIC): 32 µg/mL; MIC, EMRSA15 (EMRSA15; EMRSA15 (Table 16, role of the terminal pyrimidine ring)): 0.5; MIC (EMRSA15; Staphylococcus aureus, Staphylococcus aureus (EMRSA15), Gram-Positive (Table 14), read-out: MIC): 0.5 µg/mL; MIC (Ab17978; Acinetobacter baumannii (AB17978), Gram-Negative, read-out: MIC): ≤ 0.125 µg/mL; MIC (M6; Klebsiella pneumoniae (M6), Gram-Negative, read-out: MIC): 2 µg/mL; MIC (AYE; Acinetobacter baumannii (AYE), Gram-Negative, read-out: MIC): 4 µg/mL"

Compound,"MIC, VRE12201 (VRE12201)","MIC, MSSA9144 (MSSA9144)","MIC, VRE12204 (VRE12204)","MIC, EC12923 (EC12923)","MIC, PA13437 (PA13437)","MIC, PA01 (PA01)","MIC, VSE775 (VSE775)","MIC, EMRSA16 (EMRSA16; ESKAPE panel, Gram-positive)","MIC, KP13368 (KP13368)","MIC, EMRSA15 (EMRSA15; ESKAPE panel, Gram-positive)","MIC, Ab17978 (Ab17978)","MIC, M6 (M6)","MIC, AYE (AYE)",other results
"C[C@H]1COc2c(N3CCC(Nc4ncccn4)C3)c(F)cc3c(=O)c(C(=O)O)cn1c23 (stereo partly drawn) [KSN-82-L7, (3S)-9-fluoro-3-methyl-7-oxo-10-(3-(pyrimidin-2-ylamino)pyrrolidin-1-yl)-2,3-dihydro-7H-[1,4]oxazino[2,3,4-ij]quinoline-6-carboxylic acid]",0.5,0.06,4,1,> 32 µg/mL,8-32,0.5,4,16 µg/mL,4,0.5,4-8,16-32,Bacterial burden data ([1]; 20 mg/kg): 6.42E+02 CFU/g and 1.94E+03 CFU/g and 1.60E+03 CFU/g and 3.05E+03 CFU/g and 1.51E+03 CFU/g and 1.18E+04 CFU/g and 2.48E+03 CFU/g and 3.92E+03 CFU/g and 5.78E+02 CFU/g and 1.80E+03 CFU/g; Bacterial burden data ([1]; 50 mg/kg): 5.94E+02 CFU/g and 2.63E+03 CFU/g and 2.00E+03 CFU/g and 1.44E+03 CFU/g and 9.34E+02 CFU/g and 1.14E+03 CFU/g and 2.58E+03 CFU/g and 1.98E+03 CFU/g and 5.78E+02 CFU/g and 1.70E+03 CFU/g
